Measured values published in patent publication US10976310B2, “Ligand identification by co-fractionation” (MAX-PLANCK-GESELLSCHAFT ZUR FÖRDERUNG DER WISSENSCHAFTEN …, priority 2016, dated 2021).

Target: T1, Rbp47b-TAP protein (Arabidopsis thaliana, UniProt Q0WW84)
T1 construct: expressed in transfected cells; host or cells: Arabidopsis cell suspension culture, Agrobacterium-transformed
T1 sequence (Q0WW84 1-435): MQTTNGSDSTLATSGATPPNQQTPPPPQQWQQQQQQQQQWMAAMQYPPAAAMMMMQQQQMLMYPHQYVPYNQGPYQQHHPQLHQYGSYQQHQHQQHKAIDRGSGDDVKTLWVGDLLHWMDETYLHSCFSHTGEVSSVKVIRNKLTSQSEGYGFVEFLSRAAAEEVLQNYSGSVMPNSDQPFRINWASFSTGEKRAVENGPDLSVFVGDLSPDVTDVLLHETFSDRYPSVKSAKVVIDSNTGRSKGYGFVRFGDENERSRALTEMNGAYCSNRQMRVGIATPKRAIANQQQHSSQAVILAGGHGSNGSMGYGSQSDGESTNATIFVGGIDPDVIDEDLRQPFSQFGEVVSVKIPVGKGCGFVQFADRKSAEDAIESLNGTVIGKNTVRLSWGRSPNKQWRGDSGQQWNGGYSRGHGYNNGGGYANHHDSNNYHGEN
Assay: Cellular thermal shift assay (CETSA) in native Arabidopsis lysate
Type: binding
Conditions: read-out: change of Rbp47b melting temperature (thermal destabilization)
Description: To this end we set out to identify the binding protein partners of 2′,3′-cAMP by applying affinity purification (AP) using agarose beads, with 2′,3′-cAMP linked via the NH2 group of the purine ring. After incubation of the beads with total soluble-protein extracts from A. thaliana cell suspension cultures (cf. Materials and Methods) sequential washings with ADP, GDP, 5′-AMP, and finally 2′,3′-cAMP were performed, and the proteins eluting in the different washings were analyzed by LC-MS/MS proteomics. Proteins eluting from the agarose beads exclusively with 2′,3′-cAMP but absent in any of the other eluents (ADP, GDP, or 5′-AMP; FIG. 10A) were defined as 2′,3′-cAMP-binding. Applying this stringent criterion only one protein remained: the polyadenylate-binding protein Rbp47b. We reasoned that the putative formation of Rbp47b-2′,3′-cAMP complexes in vivo should be reflected by largely overlapping elution profiles of the two components in a size-exclusion experiment (SEC), as was indeed the case (FIG. 10B). To obtain further and independent evidence for the formation of a complex between Rbp47b and 2′,3′-cAMP, we performed a cellular thermal shift assay (CETSA) (Franken et al. (2015) Thermal proteome profiling for unbiased identification of direct and indirect drug targets using multiplexed quantitative mass spectrometry. Nat Protoc 10: 1567-1593). CESTA is a method used in the drug research to verify ligand-receptor binding in the native cellular lysate, based on the observation that presence of the ligand changes thermal stability of the protein receptor. Herein, we adapted the protocol to be suitable for the plant material and an endogenous […] metabolite. We used Arabidopsis cells expressing a tagged version of the Rbp47b, so that Rbp47b level could be easily detected with the anti-tag antibody. […] Taken together, three independent experimental approaches (AP, SEC, and CETSA) provide evidence for the binding of 2′,3′-cAMP to Rbp47b in the native Arabidopsis lysate. […]

## Nc1ncnc2c1ncn2[C@@H]1O[C@H](CO)[C@H]2OP(=O)(O)O[C@H]21 [2′,3′-cAMP]
  ΔTm at 10 µM: 2.4 °C
  ΔTm at 100 µM: 5.1 °C
